Earlier results, collected in patent US12397030B2, “Polyphenol compositions and uses thereof” (METAGENICS, INC., priority 2019, dated 2025).

How the values were obtained:
[1] = humans
[2] = test system: ATP-binding cassette transporter A1 (ABCA1); conditions: enhances reverse cholesterol transport

time by which no longer detected [1]	time to appearance following consumption [1]	elimination half-life ([1]; after consumption)	ABCA1 expression in macrophages [2]	Compound
≤ 5 h	~30 min	42.6 min		O=c1oc2c(O)c(O)cc3c(=O)oc4c(O)c(O)cc1c4c23 [ellagic acid]
			upregulation	O=c1oc2cc(O)ccc2c2ccccc12 [urolithin B]
